TGI and GI50 data for 9 compounds are collected here from PubChem BioAssay (NCI).

Each structure is given as a SMILES string. Several values for one entry are separate records, joined by “and”; a condition that tells them apart may be missing. Equal entries are not always repeated.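 A five-concentration, 48-hour dose response in 96-well plates underlies each endpoint, interpolated linearly between surrounding concentrations. GI50 marks 50% less growth. TGI is the concentration that stops growth completely.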

Assay in all cases: inhibition of tumour cell growth, NCI panel, 48 h
Assay [1] deals with NCI-H226 lung.
For assay [2], the system named is SF-268 CNS.
Assay [3] concerns UACC-62 melanoma.
For assay [4], the system named is HCT-116 colon.
Assay [5] has as its system NCI-H23 lung.
The test system of assay [6] is 786-0 renal.
The test system of assay [7] is SN12C renal.
The test system of assay [8] is TK-10 renal.
Assay [9] concerns SNB-19 CNS.
The test system of assay [10] is K-562 leukemia.

As to `CCCN(CCCCC(NC(C)=O)C(=O)NCc1ccccc1)C(=O)N(C)N=O` (centres undefined), the TGI in [1], in assay [2], in assay [3], in [4], in [5] and in [6] was greater than 100 µM in each case. Further, the TGI in assay [7], in assay [8], in [9] and in [10] was greater than 100 µM each time.
For the compound `COC(=O)NC1C(C)OC(OC2C/C=C(/C)C3C=CC4C(OC5CC(OC6CC(O)C(OC7CC(O)C(OC)C(C)O7)C(C)O6)C(O)C(C)O5)C(C)CC(C)C4C3(C)/C(O)=C3\C(=O)OC4(CC(C)C(CO)=CC4/C=C\2C)C3=O)CC1(C)[N+](=O)[O-]` (centres undefined), the GI50 in [1] was 10 µM; in assay [3], 9.44 µM; in [4], 8.04 µM; in assay [5], 8.68 µM; in assay [6], 16.8 µM; in [7], 9.65 µM. Moreover, the GI50 in assay [8] is 25.8 µM; in assay [9], 15.9 µM; in assay [10], 3.64 µM. Moreover, the TGI is 22.3 µM and 31.6 µM in [1]; 50 µM and 55.1 µM in assay [2]; 16.7 µM and 18.4 µM in assay [3]; 14.8 µM and 23.4 µM in assay [4]; 17.2 µM and 27.8 µM in [5]; 21.9 µM and 32.3 µM in [6]. The TGI in assay [7] is 29.1 µM and 40 µM; in assay [8], 32.5 µM and 81.2 µM; in assay [9], 50 µM and 52.4 µM; in assay [10], 14.7 µM and 71.8 µM.
Turning to `CCOC(=O)/C(O)=C(/c1n[nH]c(=O)c2ccccc12)[N+](=O)[O-]`, the TGI in [1], in assay [2], in [3], in assay [4], in assay [5] and in [6] was greater than 100 µM each time. The TGI in assay [7], in assay [8], in assay [9] and in assay [10] was greater than 100 µM throughout.
Regarding `COc1cc2nc(-c3cnc(N(C)C)nc3)nc(NC3CCN(Cc4ccccc4)CC3)c2cc1OC`, the GI50 was 1.73 µM in assay [1]; 1.73 µM in [2]; 1.73 µM in assay [3]; 0.316 µM in [4]; 1.69 µM in assay [5]; 1.8 µM in assay [6]. Further, the GI50 is 1.77 µM in assay [7], 1.63 µM in assay [8], 1.2 µM in assay [9] and 0.369 µM in assay [10]. The TGI in [1] was determined as 3.92 µM; in assay [2], 3.72 µM; in assay [3] it was 3.29 µM; in [4] it was 1.32 µM; in [5], 4.11 µM; in assay [6] it was 3.81 µM. For the same compound, the TGI in assay [7] was 3.49 µM; in assay [8], 3.08 µM; in [9] it was 3.1 µM; in assay [10], 1.95 µM.
Regarding `Cn1c2ccccc2c(=S)c2ccccc21`, the TGI in assay [1], in assay [2], in [3], in assay [4], in [5] and in assay [6] was greater than 100 µM in each case. Also, the TGI in [7], in assay [8], in assay [9] and in assay [10] was greater than 100 µM in each case.
Turning to `COc1cccc(C2c3cc4c(cc3OC(C)(O)C2C)OCO4)c1O` (centres undefined), the TGI is 18.7 µM in [1]; greater than 100 µM in assay [2]; 31.1 µM in assay [3]; 19.7 µM in assay [4]; 12.4 µM in assay [5]; 68.5 µM in [6]. Besides, the TGI was 62.3 µM in [7], 51 µM in assay [8], greater than 100 µM in assay [9] and 36.9 µM in assay [10].
With `C1=Cc2ccccc2Nc2ccccc21`, the GI50 in assay [1], in assay [2], in assay [3], in assay [4], in assay [5] and in assay [6] was greater than 100 µM each time. Besides, the GI50 in assay [7], in [8], in assay [9] and in assay [10] was greater than 100 µM throughout. For the same compound, the TGI in [1], in assay [2], in assay [3], in assay [4], in assay [5] and in assay [6] was greater than 100 µM each time. Further, the TGI in assay [7], in [8], in assay [9] and in [10] was greater than 100 µM each time.
Turning to `CCOc1c(Br)cc(C2C(C(=O)OC)=CN(C)C=C2C(=O)OC)cc1OC`, the GI50 is 86.3 µM in [1]; greater than 100 µM in assay [2]; 50.2 µM in [3]; 48.3 µM in assay [4]; 84.9 µM in [5]; greater than 100 µM in [6]. Moreover, the GI50 was 78.6 µM in assay [7], greater than 100 µM in [8], 83.8 µM in [9] and 50.6 µM in assay [10]. Moreover, the TGI in assay [1], in assay [2], in [3], in assay [4], in assay [5] and in [6] was greater than 100 µM in each case. Besides, the TGI in assay [7], in assay [8], in assay [9] and in assay [10] was greater than 100 µM each time.
With `O=c1c2cccc(Cl)c2sc2c(NCCCNCCO)nc3ccccc3c12`, the GI50 in assay [1] is 6.24 µM; in [2], 3.66 µM; in [3], 1.65 µM; in assay [4] it was 1.57 µM; in assay [5], 3.62 µM; in assay [6], 1.69 µM. The GI50 in assay [7] is 2.62 µM; in assay [8], 3.07 µM; in [9], 5.8 µM; in assay [10], 1.81 µM. Also, the TGI in [1] was determined as 23.9 µM; in [2], 16.7 µM; in assay [3], 3.15 µM; in assay [4] it was 3.13 µM; in assay [5], 16.5 µM; in [6], 3.52 µM. For the same compound, the TGI came to 14 µM in assay [7], 7.69 µM in assay [8], 20 µM in [9] and 4.03 µM in assay [10].
